13 compounds from ChEMBL document CHEMBL4699449, “Adenosine A Receptor Antagonists for Cancer Immunotherapy” (J Med Chem, 2020) can be followed below.

Data set [1] in a line: Half life in mouse at 2 mg/kg, iv or 10 mg/kg, po measured up to 24 hrs by LC-MS/MS analysis. The data set is classed as ADME, organism-based. As to conditions: in vivo.
The nature of data set [2]: Cmax in mouse at 1 mg/kg, iv measured up to 24 hrs by LC-MS/MS analysis. The data set is classed as ADME, organism-based. Details: route intravenous, dose 1 mg/kg, time <=24. To be noted: in vivo.
For data set [3], the target named is T1, Adenosine receptor A2a (Homo sapiens, UniProt P29274). In words: Antagonist activity at adenosine 2A receptor in human PBMC assessed as reversal of NECA/CD3/CD28-stimulated IL-2 release incubated for 24 hrs.
T1 sequence (P29274 whole entry): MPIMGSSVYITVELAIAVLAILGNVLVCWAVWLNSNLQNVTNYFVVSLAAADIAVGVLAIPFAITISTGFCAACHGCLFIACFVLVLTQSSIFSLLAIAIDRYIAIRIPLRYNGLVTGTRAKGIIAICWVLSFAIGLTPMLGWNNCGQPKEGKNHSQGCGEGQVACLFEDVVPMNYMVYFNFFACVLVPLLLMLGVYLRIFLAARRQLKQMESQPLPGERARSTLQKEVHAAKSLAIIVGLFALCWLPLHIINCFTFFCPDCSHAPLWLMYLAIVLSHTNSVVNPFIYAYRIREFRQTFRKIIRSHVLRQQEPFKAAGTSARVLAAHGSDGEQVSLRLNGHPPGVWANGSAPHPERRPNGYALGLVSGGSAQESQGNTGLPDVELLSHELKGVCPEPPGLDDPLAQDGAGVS
For data set [4], the target named is T1, Adenosine receptor A2a. Kind of data set: Antagonist activity at adenosine 2A receptor in human blood assessed as reversal of NECA/LPS-stimulated TNF-alpha release incubated for 5 hrs. The data set is classed as tissue-based.
Data set [5] is filed under the species Homo sapiens. In words: Selectivity ratio of IC50 for human adenosine A3 receptor expressed in CHO cells to IC50 for human adenosine 2A receptor expressed in HEK293 cells. The data set is classed as cell-based.
The species named for data set [6] is Homo sapiens. In words: Selectivity ratio of IC50 for human adenosine 2B receptor expressed in HEK293 cells to IC50 for human adenosine 2A receptor expressed in HEK293 cells. The data set is classed as cell-based.
Data set [7] concerns the target T1, Adenosine receptor A2a. Kind of data set: Antagonist activity at human adenosine 2A receptor expressed in HEK293 cells assessed as reduction in NECA-induced cAMP level incubated for 15 mins by HTRF assay. The data set is classed as functional, cell-based. On the technique in general: Cyclic AMP is a second messenger, typically raised through Gs and lowered through Gi signalling.

Data set [8] is filed under the species Homo sapiens. In words: Selectivity ratio of IC50 for human adenosine A1 receptor expressed in CHO cells to IC50 for human adenosine 2A receptor expressed in HEK293 cells. The data set is classed as cell-based.
The target of data set [9] is T1, Adenosine receptor A2a. Kind of data set: Antagonist activity at human adenosine 2A receptor expressed in T-REx-CHO cells preincubated for 1 hr followed by NECA stimulation and measured after 30 mins by Eu-cAMP tracer based TR-FRET assay. The data set is classed as functional, cell-based. As to conditions: filed as antagonist, time 1.5 hrs. On the technique in general: TR-FRET usually uses a lanthanide donor and a delayed reading to cut background.

In data set [10] the target is T2, Adenosine receptor A2b (Homo sapiens) (UniProt P29275).
T2 sequence (whole entry): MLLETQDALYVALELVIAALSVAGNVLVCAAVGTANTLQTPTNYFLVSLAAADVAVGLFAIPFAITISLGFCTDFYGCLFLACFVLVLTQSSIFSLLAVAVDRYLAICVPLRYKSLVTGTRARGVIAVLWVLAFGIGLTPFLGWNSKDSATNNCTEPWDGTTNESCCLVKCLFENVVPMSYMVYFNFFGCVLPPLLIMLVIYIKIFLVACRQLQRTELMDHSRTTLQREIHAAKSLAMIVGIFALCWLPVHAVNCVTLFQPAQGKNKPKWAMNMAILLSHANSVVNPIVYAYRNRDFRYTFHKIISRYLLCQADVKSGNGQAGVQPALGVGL
Kind of data set: Antagonist activity at human adenosine 2B receptor expressed in CHO-K1 cells preincubated for 1 hr followed by NECA stimulation and measured after 30 mins by Eu-cAMP tracer based TR-FRET assay. The data set is classed as functional, cell-based. To be noted: filed as antagonist, time 1.5 hrs.

The target in data set [11] is T1, Adenosine receptor A2a. In words: Antagonist activity at adenosine 2A receptor in human whole blood assessed as reduction in phosphorylated CREB level preincubated for 20 mins followed by adenosine receptor agonist NECA addition and measured after 30 mins by flow cytometric analysis. The data set is classed as functional, tissue-based.
Data set [12] concerns the target T3, Adenosine receptor A2b (Homo sapiens, UniProt P29275).
T3 sequence (P29275 whole entry): T2 sequence (whole entry)
In words: Inhibition of FRET-labelled CA200645 binding to human adenosine 2B receptor expressed in CHO cells incubated for 2 hr by TR-FRET assay. The data set is classed as cell-based.

Data set [13] is filed under the species Homo sapiens. Kind of data set: Selectivity ratio of Ki for human adenosine A3 receptor to Ki for human Adenosine 2A receptor.
The species entered for data set [14] is Homo sapiens. In words: Selectivity ratio of Ki for human adenosine A1 receptor to Ki for human Adenosine 2A receptor.
The target in data set [15] is T1, Adenosine receptor A2a. In words: Inhibition of FRET-labelled CA200645 binding to human adenosine 2A receptor expressed in CHO cells incubated for 2 hr by TR-FRET assay. The data set is classed as cell-based.
Data set [16] is filed under the species Homo sapiens. In words: Selectivity ratio of Ki for human adenosine 2B receptor expressed in HEK293 cells to Ki for human adenosine 2A receptor expressed in HEK293 cells. The data set is classed as cell-based.

A value given as a limit tells only on which side of the number the result lay.

As usually defined, the half-life is the time in which the quantity being followed falls by half. High values mean slow decline, low ones rapid decline. For orientation: Cmax means the peak of the concentration-time curve. As a reminder, the IC50 is the point on the concentration scale where inhibition reaches its midpoint. One may read the Kb as the equilibrium dissociation constant of an antagonist, usually derived from a functional assay. A high value points to lower antagonist affinity. In general, Ki refers to a measure of affinity in units of concentration, obtained from inhibition or displacement.

Turning to `COc1ccc(N2CCOCC2)c2sc(NC(=O)N3CCC(C)(O)CC3)nc12` [TOZADENANT], in data set [1], the half-life was 0.184 h. In [2], this compound yielded a Cmax of 337 ng/mL.

Compound `COc1ncc(N2CCOCC2)c2nc(NC(=O)c3cnn(C)c3)[nH]c12` gave a half-life in data set [1] of 1.72 h. Besides, the Cmax in data set [2] is 733 ng/mL.

`Cc1cccnc1CNC(=O)c1cnc(-c2ccco2)nc1N`: the IC50 in data set [3] was 77 nM; in data set [4], > 200 nM.

In turn, `COc1ncc(N2CCOCC2)c2nc(NC(=O)N3CCC(C)(O)CC3)[nH]c12` had a half-life in [1] of 0.839 h. In data set [2], this compound had a Cmax of 2650 ng/mL.

As for `COc1ccc(N2CCOCC2)c2nc(NC(=O)c3cccc(N4CCOCC4)c3)[nH]c12`, the Ratio IC50 in data set [5], in data set [6] and in data set [8] was 1000 in each case. Moreover, the half-life in [1] is 1.15 h. Further, the IC50 in [7] was < 10 nM. In data set [2], this compound displayed a Cmax of 2100 ng/mL.

For the compound `COc1cccc2c(-c3cn(Cc4cccc(C(C)(O)C(F)(F)F)[n+]4[O-])nn3)nc(N)nc12` (centres undefined), the Kb in [9] and in data set [10] was < 100 nM in each case.

Turning to `COc1nc(-c2ncco2)nc(N)c1C(=O)NCc1c(Cl)cccc1Cl`, the IC50 was 17 nM in data set [11] and > 200 nM in [4]. Moreover, the inhibition constant (Ki) in data set [12] is 5.4 nM; in [15], 0.078 nM. In addition, the results for the Ratio Ki in [13] and in data set [14] were 2490 and 230, respectively.

Turning to `COc1ncc(N2CCOCC2)c2sc(NC(=O)N3CCC(C)(O)CC3)nc12`, the half-life in data set [1] is 0.172 h. Further, the Cmax in data set [2] came out at 449 ng/mL.

For the compound `COc1ccc(-c2ccccc2)c2ncc(NC(=O)N3CCC(C)(O)CC3)nc12`, in data set [1], the half-life was > 2 h. The IC50 in [7] was < 100 nM.

As for `Cc1cccnc1CNC(=O)c1c(N)nc(-c2ccco2)nc1OC[C@H](C)O`, the IC50 was 77 nM in data set [3] and > 200 nM in data set [4].

As for `COc1ccc(-c2cnn(C)c2)c2nc(NC(=O)N3CC[C@@]4(CCCOC4)C3)[nH]c12`, the half-life in [1] is 1.11 h. In data set [2], this compound came in with a Cmax of 1440 ng/mL.

Turning to `COCc1cccc(Cn2cc(-c3cc(-c4ccco4)nc(N)n3)nn2)n1`, the antagonist dissociation constant (Kb) in [9] is < 100 nM.

For `COCCOc1ccc(N2CCN(CCn3ncc4c3nc(N)n3nc(-c5ccco5)nc43)CC2)cc1`, the Ratio Ki in [13], in data set [16] and in [14] was 1000 each time.
